The nature of assay [1]: DPPH radical scavenging activity. On the procedure:
The 2,2-diphenyl-1-picrylhydrazyl (DPPH) radical scavenging activity was evaluated as described (Gupta D et al., BMC Complement Altem Med, 2011; 11:13. doi: 10.1186/1472-6882-11-13) with modifications. In this assay, 0.2 mL of sample at different concentrations (1-1000 μg/mL) was added to 1.8 mL of DPPH solution (0.11 mM) in 80% ethanol. The mixture was then incubated for 30 minutes and at room temperature in the dark. The absorbance at 517 nm was then measured with ascorbic acid and butylhydroxytoluene (BHT) as reference antioxidants. A 0.2 mL of solvent extract dilution added to 1.8 mL of DPPH solution (0.11 mM) in 80% ethanol serve as the control. Two independent experiments were performed in triplicate. The percentage inhibition was calculated relative to the control using the equation, inhibition of DPPH radical (%)=(1−(Abssample/Abscontrol))×100.
For orientation: DPPH is a stable violet radical that fades when it is reduced.

A further assay has as its system STAT-3 phosphorylation. The experiment in a line: Interleukin-6 induced STAT-3 phosphorylation. It counts as cell-based. As to conditions: IL-6 induced STAT-3 phosphorylation; 100 uM.

In the case of `O=C1O[C@H]([C@@H](O)CO)C(O)=C1O` [Ascorbic acid, ascorbic acid], in assay [1] (300 μM), the “DPPH radical scavenging activity, %” value came to 37.60 ± 0.47%.

A word on the % Inhibition: it is the drop in the measured response relative to a control, in per cent. Read a high % Inhibition as a response far below the control. For `O=c1c(-c2ccc(O)cc2)coc2cc(O)cc(O)c12` [Genestain], the “% Inhibition” value with STAT-3 phosphorylation is recorded as 96.25%.

With `O=C(NC(Cc1cc(=O)[nH]c2ccccc12)C(=O)O)c1ccc(Cl)cc1` (stereo not drawn) [Rebamipde, rebamipide], the “DPPH radical scavenging activity, %” value in assay [1] (100 μg/mL) is 0.93 ± 0.83%.
